Measurements: patent US20250215012A1, “IKZF2 DEGRADERS AND USES THEREOF” (REGENTS OF THE UNIVERSITY OF MICHIGAN, priority 2022, published 2025)

What was measured:
IKZF2 = IKZF2 (Homo sapiens (Human), UniProt Q96SW2+Q9UKS7); test: IKZF2 HiBit Assay (HEK293T Flp-in-HiBiT cells); assay type: cell-based; conditions: HEK293T Flp-in-HiBiT cells, 6 hrs; for DC50: read-out: IKZF2 HiBit degradation DC50; for Dmax: HEK-293T, read-out: IKZF2 HiBit degradation Dmax
Protocol: The HiBiT protein tagging system was applied to modified HEK293T Flp-in-HiBiT cells (polyclone) via a CRISPR/Cas9—mediated insertion of the HiBiT peptide tag (Promega™) to the N-terminus of the IKZF2 gene locus (Neon™ transfection system). Test and reference compounds are diluted from 1 mM at 3 folds for 11 doses. 25 nL of diluted compound is transferred to assay plates (Corning3570) using ECHO550, the final DMSO concentration @0.1%. The cells are seeded in 3000/[…]/well to compound plates. It is then incubated for 6 hrs in TC incubator. The amount of Nano-Glo® HiBiT lytic reagent needed to perform the desired experiments is calculated. The Nano-Glo® HiBiT lytic reagent is brought to room temperature. The LgBiT protein is diluted to 1:100 and the Nano-Glo® HiBiT lytic substrate is diluted to 1:50 into an appropriate volume of room temperature Nano-Glo® HiBiT lytic buffer. […] of the detection reagent (or without LgBiT) is dispensed to corresponding well according to the layout. The plate is then shaked for 10 mins at room temperature. After briefly centrifuge, the plate is read on Envision. At the indicated timepoints, the Nano-Glo® HiBiT lytic detection system (Promega™) was utilized for detecting bioluminescence of the HiBiT tag in treated cells: abundance of the tag is proportionate to the level of luminescence. Following normalization to DMSO, dose-response curves were plotted (GraphPad Prism) to determine the concentration points at which 50% of HiBiT-Helios degradation was achieved by each compound. The extent of degradation (range of luminescence) from the highest to lowest concentration points was calculated to determine the Dmax.

IKZF1 = IKZF1 (Homo sapiens (Human), UniProt Q13422+Q96SW2); test: IKZF1 HiBit Assay (HEK293T Flp-in-HiBiT-IKZF1 stable cell line); assay type: cell-based; conditions: HEK293T Flp-in-HiBiT-IKZF1 cells, 6 hrs; for DC50: read-out: IKZF1 HiBit degradation DC50; for Dmax: HEK-293T, read-out: IKZF1 HiBit degradation Dmax
Protocol: The HiBiT protein tagging system was applied to modified Cells: modified HEK293T Flp-in-HiBiT-IKZF1 stable cell line (polyclone) via a CRISPR/Cas9—mediated insertion of the HiBiT peptide tag (Promega™) to the N-terminus of the IKZF2 gene locus (Neon™ transfection system).
Test compound from 10 mM and reference compound (CC-92480 from 50 mM and I-57 from 10 mM) are diluted at 3 folds for 11 doses. 25 nL of diluted compound is transferred to assay plates (Corning3571) using ECHO550, the final DMSO concentration @0.1%. The cells are seeded in 3000/[…]/well to compound plates. The plates are incubated for 6 hrs in TC incubator. The amount of Nano-Glo® HiBiT lytic reagent needed to perform the desired experiments is calculated. The Nano-Glo® HiBiT lytic reagent is brought to room temperature. The LgBiT protein is diluted to 1:100 and the Nano-Glo® HiBiT lytic substrate is brought to 1:50 into an appropriate volume of room temperature Nano-Glo® HiBiT lytic buffer. […] of the detection reagent (or without LgBiT) is dispensed to corresponding well according to the layout. The plate is shaked for 10 mins at room temperature. After briefly centrifuging, the plate is read on Envision. At the indicated timepoints, the Nano-Glo® HiBiT lytic detection system (Promega™) was utilized for detecting bioluminescence of the HiBiT tag in treated cells: abundance of the tag is proportionate to the level of luminescence. Following normalization to DMSO, dose-response curves were plotted (GraphPad Prism) to determine the concentration points at which 50% of HiBiT-Ikaros degradation was achieved by each compound. The extent of degradation (range of luminescence) from the highest to lowest concentration points was calculated to determine the Dm.

[1] = target: His tagged CRBN+DDB−DLS7+CXU4 (Homo sapiens (Human), UniProt Q96SW2); test: IC50 Measurements for Binding to CRBN/DDBI (HTRF); conditions: Cy5-labeled Thalidomide probe, one hour incubation
Chain of His tagged CRBN+DDB−DLS7+CXU4 (Q96SW2 whole entry): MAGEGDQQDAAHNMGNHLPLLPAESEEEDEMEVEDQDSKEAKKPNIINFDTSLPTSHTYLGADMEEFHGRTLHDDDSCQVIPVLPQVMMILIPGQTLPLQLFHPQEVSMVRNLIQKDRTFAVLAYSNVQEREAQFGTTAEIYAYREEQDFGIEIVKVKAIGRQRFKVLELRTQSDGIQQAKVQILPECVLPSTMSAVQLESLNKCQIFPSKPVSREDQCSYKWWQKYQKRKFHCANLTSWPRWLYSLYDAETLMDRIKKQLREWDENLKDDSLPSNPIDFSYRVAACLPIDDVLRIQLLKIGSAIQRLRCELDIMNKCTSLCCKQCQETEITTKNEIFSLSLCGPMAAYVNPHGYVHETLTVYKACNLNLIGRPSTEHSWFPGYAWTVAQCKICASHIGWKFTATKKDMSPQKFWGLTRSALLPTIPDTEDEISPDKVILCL
Chain of His tagged CRBN+DDB−DLS7+CXU4 (Q16531 whole entry partner): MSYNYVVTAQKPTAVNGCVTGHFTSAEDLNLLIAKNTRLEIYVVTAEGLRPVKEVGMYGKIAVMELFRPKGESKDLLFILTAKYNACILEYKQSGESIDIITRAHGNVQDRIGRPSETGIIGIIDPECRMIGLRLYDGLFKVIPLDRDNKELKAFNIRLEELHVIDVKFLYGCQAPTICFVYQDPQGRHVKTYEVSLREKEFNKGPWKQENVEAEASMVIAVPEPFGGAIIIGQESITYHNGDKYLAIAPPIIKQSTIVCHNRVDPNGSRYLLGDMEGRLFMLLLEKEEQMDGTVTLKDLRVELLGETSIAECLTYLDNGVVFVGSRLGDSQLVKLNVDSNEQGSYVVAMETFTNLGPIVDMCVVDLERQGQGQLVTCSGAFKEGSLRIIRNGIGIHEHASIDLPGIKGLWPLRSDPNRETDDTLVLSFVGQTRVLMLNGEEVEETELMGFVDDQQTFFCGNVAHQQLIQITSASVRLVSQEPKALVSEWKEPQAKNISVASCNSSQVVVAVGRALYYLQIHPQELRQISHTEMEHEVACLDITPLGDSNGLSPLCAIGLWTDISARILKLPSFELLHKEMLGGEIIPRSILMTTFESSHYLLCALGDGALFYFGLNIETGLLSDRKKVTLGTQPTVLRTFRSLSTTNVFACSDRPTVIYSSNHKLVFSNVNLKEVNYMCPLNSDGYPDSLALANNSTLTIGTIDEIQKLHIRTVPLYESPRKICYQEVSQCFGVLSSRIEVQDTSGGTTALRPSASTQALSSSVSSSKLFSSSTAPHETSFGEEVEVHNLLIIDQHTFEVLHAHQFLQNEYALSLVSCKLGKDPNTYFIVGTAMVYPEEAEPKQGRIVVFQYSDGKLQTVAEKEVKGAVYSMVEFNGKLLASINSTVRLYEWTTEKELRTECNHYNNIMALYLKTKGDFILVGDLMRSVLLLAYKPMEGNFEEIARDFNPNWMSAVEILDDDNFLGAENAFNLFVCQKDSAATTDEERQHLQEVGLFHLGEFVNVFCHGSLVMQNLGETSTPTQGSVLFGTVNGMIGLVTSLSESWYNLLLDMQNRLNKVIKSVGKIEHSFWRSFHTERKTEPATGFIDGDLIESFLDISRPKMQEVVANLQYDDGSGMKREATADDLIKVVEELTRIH

Chain of IKZF2 (Q9UKS7 whole entry): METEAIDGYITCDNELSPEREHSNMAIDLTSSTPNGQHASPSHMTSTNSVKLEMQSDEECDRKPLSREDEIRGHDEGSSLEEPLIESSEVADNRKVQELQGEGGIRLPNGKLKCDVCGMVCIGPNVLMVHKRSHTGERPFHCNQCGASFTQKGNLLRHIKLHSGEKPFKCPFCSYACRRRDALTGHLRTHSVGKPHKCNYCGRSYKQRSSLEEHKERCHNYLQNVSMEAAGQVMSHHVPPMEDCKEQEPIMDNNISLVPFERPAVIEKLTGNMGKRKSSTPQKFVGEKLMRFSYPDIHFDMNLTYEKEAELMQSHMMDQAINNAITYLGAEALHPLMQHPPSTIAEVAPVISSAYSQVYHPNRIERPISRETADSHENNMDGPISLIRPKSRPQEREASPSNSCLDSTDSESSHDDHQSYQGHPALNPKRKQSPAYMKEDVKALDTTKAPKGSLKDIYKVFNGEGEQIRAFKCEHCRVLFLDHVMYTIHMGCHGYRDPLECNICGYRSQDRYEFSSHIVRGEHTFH
Chain of IKZF2 (Q96SW2 whole entry): as the sequence (Q96SW2 whole entry) above
Chain of IKZF2 (Q16531 whole entry partner): as the sequence (Q16531 whole entry partner) above
Chain of IKZF1 (Q13422 whole entry): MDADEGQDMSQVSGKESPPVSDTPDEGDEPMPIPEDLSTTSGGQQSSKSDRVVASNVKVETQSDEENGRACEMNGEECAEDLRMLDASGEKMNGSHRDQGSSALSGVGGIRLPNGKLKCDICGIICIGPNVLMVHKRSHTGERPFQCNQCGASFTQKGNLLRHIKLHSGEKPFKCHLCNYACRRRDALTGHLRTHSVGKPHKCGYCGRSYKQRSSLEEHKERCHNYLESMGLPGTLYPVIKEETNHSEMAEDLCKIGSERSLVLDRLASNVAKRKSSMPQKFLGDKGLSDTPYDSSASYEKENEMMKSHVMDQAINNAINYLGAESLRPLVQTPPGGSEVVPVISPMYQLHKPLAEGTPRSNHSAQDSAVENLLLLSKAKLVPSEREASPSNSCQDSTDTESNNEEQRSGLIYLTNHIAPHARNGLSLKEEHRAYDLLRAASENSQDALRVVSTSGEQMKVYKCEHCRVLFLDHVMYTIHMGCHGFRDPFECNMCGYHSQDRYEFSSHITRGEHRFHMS
Chain of IKZF1 (Q96SW2 whole entry): as the sequence (Q96SW2 whole entry) above
Chain of IKZF1 (Q16531 whole entry partner): as the sequence (Q16531 whole entry partner) above

[2H]C1([2H])Oc2c(ccc3c2CN(C2CCC(=O)NC2=O)C3=O)C12CCN(Cc1cccc(-c3cnn(C)c3)c1)CC2 (stereo not drawn) [Compound B13, 3-(1′-(3-(1-methyl-1H-pyrazol-4-yl)benzyl)-6-oxo-6,8-dihydro-2H,7H spiro[furo[2,3-e]isoindole-3,4′-piperidin]-7-yl-2,2-d2)piperidine-2,6-dione]
DC50 (IKZF2): 1 to 10 nM
Dmax (IKZF2): 60 to 80%
DC50 (IKZF1): > 1000 nM
Dmax (IKZF1): < 20%
IC50 [1]: 100 to 500 nM

Cn1cc(-c2cccc(CN3CCC4(CC3)COc3c4cc(F)c4c3CN([C@H]3CCC(=O)NC3=O)C4=O)c2)cn1 [Compound B16, (S)-3-(5-fluoro-1′-(3-(1-methyl-1H-pyrazol-4-yl)benzyl)-6-oxo-6,8-dihydro-2H,7H-spiro[furo[2,3-e]isoindole-3,4′-piperidin]-7-yl)piperidine-2,6-dione]
DC50 (IKZF2): 1 to 10 nM
Dmax (IKZF2): 40 to 60%
DC50 (IKZF1): > 1000 nM
Dmax (IKZF1): < 20%
IC50 [1]: 100 to 500 nM

O=C1CC[C@H](N2Cc3c4c(cc(Cl)c3C2=O)C2(CCN(Cc3ccccc3)CC2)CO4)C(=O)N1 [Compound B17, (S)-3-(1′-benzyl-5-chloro-6-oxo-6,8-dihydro-2H,7H-spiro[furo[2,3-e]isoindole-3,4′-piperidin]-7-yl)piperidine-2,6-dione]
DC50 (IKZF2): > 1000 nM
Dmax (IKZF2): < 20%
DC50 (IKZF1): > 1000 nM
Dmax (IKZF1): < 20%
IC50 [1]: 500 to 1000 nM

O=C1CC[C@H](N2Cc3c4c(cc(Cl)c3C2=O)C2(CCN(Cc3cccc5cn[nH]c35)CC2)CO4)C(=O)N1 [Compound B18, (S)-3-(1′-((1H-indazol-7-yl)methyl)-5-chloro-6-oxo-6,8-dihydro-2H,7H-spiro[furo[2,3-e]isoindole-3,4′-piperidin]-7-yl)piperidine-2,6-dione]
DC50 (IKZF2): > 1000 nM
Dmax (IKZF2): < 20%
DC50 (IKZF1): > 1000 nM
Dmax (IKZF1): < 20%
IC50 [1]: 100 to 500 nM

Cn1cc(-c2cccc(CN3CCC4(CC3)COc3c4cc(C#N)c4c3CN([C@H]3CCC(=O)NC3=O)C4=O)c2)cn1 [Compound B19, (S)-7-(2,6-dioxopiperidin-3-yl)-1′-(3-(1-methyl-1H-pyrazol-4-yl)benzyl)-6-oxo-7,8-dihydro-2H,6H-spiro[furo[2,3-e]isoindole-3,4′-piperidine]-5-carbonitrile]
DC50 (IKZF2): 100 to 1000 nM
Dmax (IKZF2): 40 to 60%
DC50 (IKZF1): > 1000 nM
Dmax (IKZF1): < 20%
IC50 [1]: 1000 to 5000 nM

Cc1cc2c(c3c1C(=O)N([C@H]1CCC(=O)NC1=O)C3)OCC21CCN(Cc2cccc(-c3cnn(C)c3)c2)CC1 [Compound B20, (S)-3-(5-methyl-1′-(3-(1-methyl-1H-pyrazol-4-yl)benzyl)-6-oxo-6,8-dihydro-2H,7H-spiro[furo[2,3-e]isoindole-3,4′-piperidin]-7-yl)piperidine-2,6-dione]
DC50 (IKZF2): > 1000 nM
Dmax (IKZF2): 20 to 40%
DC50 (IKZF1): > 1000 nM
Dmax (IKZF1): < 20%
IC50 [1]: 500 to 1000 nM

CC1CN(Cc2cccc(-c3cnn(C)c3)c2)CCC12COc1c2ccc2c1CN(C1CCC(=O)NC1=O)C2=O (stereo not drawn) [Compound B21, 3-(3′-methyl-1′-(3-(1-methyl-1H-pyrazol-4-yl)benzyl)-6-oxo-6,8-dihydro-2H,7H-spiro[furo[2,3-e]isoindole-3,4′-piperidin]-7-yl)piperidine-2,6-dione]
DC50 (IKZF2): 1 to 10 nM
Dmax (IKZF2): 20 to 40%
DC50 (IKZF1): > 1000 nM
Dmax (IKZF1): < 20%
IC50 [1]: 100 to 500 nM

O=C1CCC(N2Cc3c(ccc4c3OCC43CCN(Cc4ccccc4)CC3O)C2=O)C(=O)N1 (stereo not drawn) [Compound B22, 3-(1′-benzyl-3′-hydroxy-6-oxo-6,8-dihydro-2H,7H-spiro[furo[2,3-e]isoindole-3,4′-piperidin]-7-yl)piperidine-2,6-dione]
DC50 (IKZF2): 10 to 100 nM
Dmax (IKZF2): 20 to 40%
DC50 (IKZF1): > 1000 nM
Dmax (IKZF1): < 20%
IC50 [1]: 100 to 500 nM

O=C1CCC(N2Cc3c(ccc4c3OCC43CCN(Cc4ccccc4)CC3F)C2=O)C(=O)N1 (stereo not drawn) [Compound B23, 3-(1′-benzyl-3′-fluoro-6-oxo-6,8-dihydro-2H,7H-spiro[furo[2,3-e]isoindole-3,4′-piperidin]-7-yl)piperidine-2,6-dione]
DC50 (IKZF2): > 1000 nM
Dmax (IKZF2): < 20%
DC50 (IKZF1): > 1000 nM
Dmax (IKZF1): < 20%
IC50 [1]: 500 to 1000 nM

O=C1CC[C@H](N2Cc3c(ccc4c3OCC43CCN(Cc4ccc5c(c4)CC(=O)N5)CC3(F)F)C2=O)C(=O)N1 (stereo partly drawn) [Compound B28, (3S)-3-(3′,3′-difluoro-6-oxo-1′-((2-oxoindolin-5-yl)methyl)-6,8-dihydro-2H,7H-spiro[furo[2,3-e]isoindole-3,4′-piperidin]-7-yl)piperidine-2,6-dione]
DC50 (IKZF2): 1 to 10 nM
Dmax (IKZF2): 60 to 80%
DC50 (IKZF1): > 1000 nM
Dmax (IKZF1): < 20%
IC50 [1]: 100 to 500 nM

O=C1CC[C@H](N2Cc3c(ccc4c3OCC43CCN(Cc4cnn(S(=O)(=O)c5ccccc5Cl)c4)CC3(F)F)C2=O)C(=O)N1 (stereo partly drawn) [Compound B29, (3S)-3-(1′-((1-((2-chlorophenyl)sulfonyl)-1H-pyrazol-4-yl)methyl)-3′,3′-difluoro-6-oxo-6,8-dihydro-2H,7H-spiro[furo[2,3-e]isoindole-3,4′-piperidin]-7-yl)piperidine-2,6-dione]
DC50 (IKZF2): < 1 nM
Dmax (IKZF2): > 80%
DC50 (IKZF1): 1 to 10 nM
Dmax (IKZF1): > 40%
IC50 [1]: < 100 nM

O=C1CC[C@H](N2Cc3c(ccc4c3OCC43CCN(Cc4cnn(-c5ccc(Cl)cc5)c4)CC3(F)F)C2=O)C(=O)N1 (stereo partly drawn) [Compound B30, (3S)-3-(1′-((1-(4-chlorophenyl)-1H-pyrazol-4-yl)methyl)-3′,3′-difluoro-6-oxo-6,8-dihydro-2H,7H-spiro[furo[2,3-e]isoindole-3,4′-piperidin]-7-yl)piperidine-2,6-dione]
DC50 (IKZF2): 1 to 10 nM
Dmax (IKZF2): 60 to 80%
DC50 (IKZF1): > 1000 nM
Dmax (IKZF1): < 20%
IC50 [1]: 1000 to 5000 nM

O=C1CC[C@H](N2Cc3c(ccc4c3OCC43CCN(Cc4ccc5c(c4)C(=O)NC5)CC3(F)F)C2=O)C(=O)N1 (stereo partly drawn) [Compound B31, (3S)-3-(3′,3′-difluoro-6-oxo-1′-((3-oxoisoindolin-5-yl)methyl)-6,8-dihydro-2H,7H-spiro[furo[2,3-e]isoindole-3,4′-piperidin]-7-yl)piperidine-2,6-dione]
DC50 (IKZF2): 1 to 10 nM
Dmax (IKZF2): 60 to 80%
DC50 (IKZF1): > 1000 nM
Dmax (IKZF1): < 20%
IC50 [1]: 100 to 500 nM

Cn1cc2ccc(CN3CCC4(COc5c4ccc4c5CN([C@H]5CCC(=O)NC5=O)C4=O)C(F)(F)C3)cc2n1 (stereo partly drawn) [Compound B35, (3S)-3-(3′,3′-difluoro-1′-((2-methyl-2H-indazol-6-yl)methyl)-6-oxo-6,8-dihydro-2H,7H-spiro[furo[2,3-e]isoindole-3,4′-piperidin]-7-yl)piperidine-2,6-dione]
DC50 (IKZF2): 1 to 10 nM
Dmax (IKZF2): 60 to 80%
DC50 (IKZF1): > 1000 nM
Dmax (IKZF1): < 20%
IC50 [1]: < 100 nM

Cn1cc2cccc(CN3CCC4(COc5c4ccc4c5CN([C@H]5CCC(=O)NC5=O)C4=O)C(F)(F)C3)c2n1 (stereo partly drawn) [Compound B36, (3S)-3-(3′,3′-difluoro-1′-((2-methyl-2H-indazol-7-yl)methyl)-6-oxo-6,8-dihydro-2H,7H-spiro[furo[2,3-e]isoindole-3,4′-piperidin]-7-yl)piperidine-2,6-dione]
DC50 (IKZF2): 1 to 10 nM
Dmax (IKZF2): 60 to 80%
DC50 (IKZF1): < 1 nM
Dmax (IKZF1): 20 to 40%
IC50 [1]: 100 to 500 nM
